Series [1] in a line: Rota-Rod test after intranasal administration. The class given is in vivo, rat. The settings on record: intranasal 1 mg/kg; 6 rpm; sessions 0-60 minutes after administration. Here is the method:
Two groups of rats (12 rats each) were tested. Each rat went through 8 sessions on the rota-rod: 3 sessions before drug administration (pretest, time −45, −30, and −15 minutes); 1 session immediately after the drug was administered (time 0); and 4 sessions after drug administration (time 15, 30, 45, and 60 minutes).
A speed of 6 rpm was used, and diltiazem was administered, as described above, intra-nasally at 1 mg/kg.
For orientation: In the rotarod test animals must keep their balance on a rotating rod.

A short description of series [2]: Food intake in food-deprived rats after intranasal administration. The class given is in vivo, rat. Here is the method:
Male Sprague-Dawley rats, 150-175 g at the start of the experiments (Charles River Laboratories, Wilmington, Mass.) were housed individually in suspended wire mesh cages; maintained on a reversed-lighting schedule (lights-on at 7 p.m., lights-off at 7 a.m.); and acclimated to our climate controlled animal facility and to the test diets for 7 days prior to experimentation. As the experiments in food-deprived rats were performed during the dark cycle, a dull red light (25 watt) was used to help with placement and weighing of the food jars.
Rats had ad libitum access to tap water and food (Rodent Laboratory Chow No. 5001-pellet form, Purina) on non-testing days. A mush diet, used for experiments on food-deprived animals, and composed of equal parts by weight of ground rodent chow (Purina, # 5001-meal form) and a 4% nutrient agar solution (Teklad Diets) was presented to the animals in glass jars. […]
One hour after administration, pre-weighed food jars were introduced into the cage and a sheet of clean white paper placed under each cage to catch any spillage. The amount of food consumed after 1, 2 and 4 hours was determined to the nearest 0.01 g. […]
One hour later pre-weighed food jars were introduced into the cage and a sheet of clean white paper placed under each cage to catch any spillage. The amount of food consumed after 1, 2 and 4 hours was determined to the nearest 0.01 g.

A further series deals with olfactory epithelium. Description: Electro-olfactory (EOG) recording of olfactory epithelium response to odorant Citralva. The class given is in vivo, mice. The note with it: 10 μl/nostril intranasal, recording 10 min later. How it is done:
A detailed description of the method employed is provided, e.g., by Wong et al. (Neuron 2000: 27: 487-97), and Scott (J Neurosci 2000; 15:4721-31). Briefly, six week old mice were used and each mouse was given 10 μl/nostril of Diltiazem at 10 μM, 100 μM, or saline. It was returned to home cage and euthanized 10 min later for electro-olfactory (EOG) recording. The odorant was Ciltralva at 5 μM. Also included was a “no treatment” control.

Each structure is given as a SMILES string.

For `COc1ccc([C@@H]2Sc3ccccc3N(CCN(C)C)C(=O)[C@@H]2OC(C)=O)cc1` [diltiazem, Diltiazem], the “activity (balance and agility) in Rota-Rod test, drug versus vehicle group” value in series [1] is listed as “no indications of a difference in activity”. The “optimal dose (concentration of solution) for reduction of food intake” value in series [2] (dosing study, intranasal 20 μL/nostril, 0.02, 0.2 and 2 mg/kg, strong trend (FIG. 2)) is on record as 0.2-20 % w/v. For the same compound, the “amount of food consumed” value in series [2] (intranasal 20 μL/nostril, 0.02-2 mg/kg, food given 1 hour after administration, consumed after 1, 2 and 4 hours, versus placebo (FIG. 1)) is listed as “consumed significantly less food”. The “effect on olfactory nerve activity (EOG response to Citralva 5 μM)” value in the series with olfactory epithelium (10 μM) is “little effect”. Moreover, the “effect on olfactory nerve response (EOG response to Citralva 5 μM)” value in the series with olfactory epithelium (100 μM) is “blocked”.

The values are drawn from patent publication US7435407B2, “Inhibition of olfactory neurosensory function to treat eating disorders and obesity” (Compellis Pharmaceuticals, priority 2002, dated 2008).
